# Test: gradient 5% acetonitrile 3 min, to 50% in 2 min, to 85% in 15 min, held 3 min, 100 µL/min
# Conditions: column: Zorbax Extend-C18 2.1 x 50 mm; eluents: water / acetonitrile, 0.1% formic acid
# Outline: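 Standards, all pure, were combined into mixtures of ~100 molecules and run at 100 μL/min on a Zorbax Extend-C18 column (2.1 × 50 mm, 1.8 μm) with water and acetonitrile, each containing 0.1% formic acid. A coupled quadrupole time-of-flight mass spectrometer operated in positive and negative ionization mode. Retention time values come from computationally picked adduct peaks, each inspected manually.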
row,SMILES,RP-LC retention time
1,CCC1Oc2ccc(S(=O)(=O)N3CCC(C(=O)NCc4ccccc4)CC3)cc2NC1=O (stereo unspecified),824 s
2,COc1nccnc1N1CCC(NC(=O)Cc2c(C)noc2C)C1 (stereo unspecified),596 s
3,O=C(c1cn(-c2cc(-c3nc(C4CC4)no3)ccn2)cn1)N1CCSCC1,833 s
4,O=C(Nc1cccnc1)c1ccc(S(=O)(=O)NC2CC2)cc1,552 s
5,CCn1c(=O)c(C)nc2cc(-c3noc(-c4cccc(N(C)C)c4)n3)ccc21,1170 s
6,C=CCSc1n[nH]c(-c2cccs2)n1,792 s
7,O=C(C1CCN(c2nc(-c3ccc(Cl)cc3)no2)CC1)N1CCN(c2ncccn2)CC1,968 s
8,O=C(NC1CCN(c2cc(-c3cccs3)[nH]n2)C1)c1cccnc1 (stereo unspecified),618 s
9,O=C(NC1CCCCCCC1)C1CCN(S(=O)(=O)c2cc(C(=O)N3CCCC3)cs2)CC1,902 s
10,COC(=O)c1cc(OCC(=O)Nc2ccccc2Cl)c2cc(OC)ccc2n1,915 s
11,COc1cccc(NC(=O)N2CCC3(C2)C(=O)N(C)c2ccccc23)c1 (stereo unspecified),760 s
12,CN1C(=O)CCc2cc(NS(=O)(=O)c3ccc(F)c(F)c3)ccc21,781 s
13,COC(=O)c1ccc2c(=O)n(-c3ccc(C)c(F)c3)c(N3CCSCC3)nc2c1,1100 s
14,Cc1ccccc1NC(=O)C1CCc2nc(N3CCOCC3)ncc2C1 (stereo unspecified),723 s
15,CC(C)(C)OC(=O)NCc1nnc(C(F)(F)F)n1-c1ccccc1,773 s
16,O=C(NCCc1ccc(F)cc1)C(=O)Nc1cccc(N2CCCC2=O)c1,771 s
17,Cc1ccc(S(=O)(=O)N2CCC(n3cnnc3C)CC2)cc1C,704 s
18,O=C(CCn1cccn1)N1CCCn2ccnc2C1C1CCCC1 (stereo unspecified),582 s
19,Cc1ccc(-n2nc(C)c3sc(N4CCCC(C(=O)NC(C)c5ccccc5)C4)nc32)cc1 (stereo unspecified),1190 s
20,Cc1c(CC(=O)N2CCC(C(N)=O)CC2)c(=O)oc2cc3oc4c(c3cc12)CCCC4,764 s
21,Cc1nc(-c2cn(C(C)C)c3ncccc23)sc1C(=O)N1CCN(C(C)C)CC1,622 s
22,CCOc1cccc(-c2noc(Cn3nc(-c4ccc(C)cc4)ccc3=O)n2)c1,1170 s
23,Cc1cc2n(n1)CCC(=O)N2CCCC(=O)NCCCN1CCCCCC1,570 s

row,SMILES,RP-LC retention time
1,COc1cn(CC(=O)Nc2ccc(OC(F)(F)F)cc2)c(CO)cc1=O,618 s
2,CCCN(CC1CCOC1)C(=O)Nc1cc(F)ccc1F (stereo unspecified),844 s
3,CSc1ccccc1CN1CCC(CNC(=O)c2ccccc2Br)CC1,572 s
4,CCn1c(=O)sc2cc(S(=O)(=O)N3CCC(C(=O)Nc4ccc(C)cc4)CC3)ccc21,940 s
5,CN1C(=O)c2ccccc2C(C(=O)NCCN(Cc2ccco2)C2CCCC2)C1c1cccs1 (stereo unspecified),674 s
6,Cc1cc(F)cc2c(=O)c3c([nH]c12)CCN(CC(=O)Nc1cccc(F)c1)C3,620 s
7,Cc1c(-c2ccnc(N3CCCCC3)n2)cnc2nc(-c3ccccc3)nn12,1180 s
8,CNC(=O)C1(C)CC(c2ccccc2)=NO1 (stereo unspecified),693 s
9,O=C(NCc1csc(-c2ccccc2)n1)[C@H]1CCCN1C(=O)Nc1ccc(Br)cc1,874 s
10,O=C(CCC1CCCN(S(=O)(=O)c2ccc(F)cc2)C1)NC1CC1 (stereo unspecified),764 s
11,CS(=O)(=O)N1CCN(C(=O)c2coc(NC(=O)c3ccccc3)n2)CC1,608 s
12,Cn1nc(C(=O)Nc2ccc3c(c2)C(=O)N2CCC[C@H]2C(=O)N3)c2ccccc21,714 s
13,N#Cc1ccc(C(=O)Nc2cnc(N3CCCCC3)nc2)cc1,862 s
14,CN1CCN(S(=O)(=O)c2cc(-c3nnc(C4CCCC4)o3)co2)CC1,619 s
15,CCc1noc(NC(C)=O)c1-c1ccc(C)c(S(=O)(=O)Nc2ccc(Br)cc2F)c1,903 s
16,O=C(Nc1ccc(F)c(Cl)c1)c1cn2c(n1)CCCC2,648 s
17,CC1=C(c2ccc(Cl)cc2)S(=O)(=O)N=C1N1CCCN(C(=O)c2ccoc2)CC1,825 s
18,CCN(CC)C(=O)C1CCN(S(=O)(=O)c2ccc3c(c2)sc(=O)n3C(C)C)CC1,873 s
19,Cc1ccccc1NC(=O)N1CCCC(C)(C(=O)NCc2ccc(F)cc2)C1 (stereo unspecified),899 s
20,O=C(NCc1ccco1)c1ccc2c(c1)CCCN2S(=O)(=O)c1ccc(Cl)cc1,999 s
21,COc1ccc(NC(=O)c2[nH]c3cc(C)sc3c2CN(C)C)cc1,666 s
22,O=C(C1CCC1)N1CCc2sc(S(=O)(=O)NCc3ccccc3Cl)cc2C1,923 s
23,Cc1ccc(-c2nc3ccccc3[nH]2)cc1NC(=O)C1CCCO1 (stereo unspecified),615 s

row,SMILES,RP-LC retention time
1,COCCCNC(=O)C1COc2ccc(NC(=O)c3ccc(Br)cc3)cc2C1 (stereo unspecified),788 s
2,Cc1ccc2c(c1)OCC(=O)N2Cc1nc(-c2ccc(Cl)cc2)no1,1140 s
3,O=C(NCc1ccc(Cl)cc1)C(=O)NCC1(c2cccs2)CCCC1,1120 s
4,CCCC(NC(=O)Cc1ccc(Cl)cc1)C(=O)Nc1nc2ccccc2[nH]1 (stereo unspecified),753 s
5,CCN1CCN(c2ncc(C(=O)Nc3c(F)cc(F)cc3Br)c3ccccc23)CC1,581 s
6,CCN(Cc1ccccc1)C(=O)Cn1nc2c(N3CCSCC3)nccn2c1=O,829 s
7,Cc1cc(C)cc(NC(=O)N2CCN(c3cnn4c(C)nnc4c3)CC2)c1,634 s
8,Cc1ccc(CNC(=O)N2CCc3c(c(-c4nc(C)no4)nn3C)C2)cc1,738 s
9,CSc1nnc(Cc2nnc(SC)n2-c2ccccc2)n1-c1ccccc1,784 s
10,O=C(Cn1nc2n(c1=O)CCCCC2)Nc1ccc(Cl)cc1,730 s
11,O=C(NCCCN1CCCC1=O)c1cccc(N2CCNC(c3ccccc3)C2)n1 (stereo unspecified),590 s
12,c1ccc(-c2noc(CN3CCCCC3c3nc(C4CC4)no3)n2)nc1 (stereo unspecified),784 s
13,Cc1nc(-c2noc(-c3ccncc3)n2)cn1CC(=O)Nc1ccc(Cl)cc1,731 s
14,Cc1ccc(-c2cn3ccccc3n2)cc1NS(=O)(=O)c1ccc(Br)cc1,710 s
15,COc1ccc(OCc2nc(-c3ccc4oc(C)nc4c3)no2)cc1,984 s
16,CCc1nn2c(CNS(=O)(=O)Cc3cccc(F)c3)c(-c3ccccc3)nc2s1,972 s
17,O=C(CS(=O)Cc1cnn(-c2ccccc2)c1-n1cccc1)N1CCC(Cc2ccccc2)CC1 (stereo unspecified),1010 s
18,COc1ccccc1-c1nn2c(-c3ccc4ccccc4n3)nnc2s1,1040 s
19,Cc1nc(-c2ccccc2)cc2nn(CC(=O)NCc3ccccc3)c(=O)n12,873 s
20,O=C(Cc1ccccc1)N1CCCCC1c1nncn1-c1ccccc1 (stereo unspecified),741 s
21,Cc1cnc(-c2cccnc2)n1CC1CNC1,508 s
22,CC(C)Cc1ccc(S(=O)(=O)N2CCCC2c2nc(-c3ccc(F)cc3)no2)cc1 (stereo unspecified),1360 s
23,CN(C)CCCNC(=O)C1CCCN(c2cnc3nccnc3c2)C1 (stereo unspecified),562 s

row,SMILES,RP-LC retention time
1,CCCC(=O)Nc1ccc2c(c1)CC(C(=O)NCCOC)CO2 (stereo unspecified),646 s
2,CC(C)(C)c1nc(N2CCCCC2)c2ccccc2n1,723 s
3,Cc1ccn2c(NC(=O)CCc3ccccc3)c(-c3ccc(F)cc3)nc2c1,703 s
4,CCC(C)NC(=O)c1cnn(-c2cc(-c3nc(C(C)C)no3)ccn2)c1C (stereo unspecified),617 s
5,Cc1ccc(CN2CCC(c3nc(-c4cnccn4)n[nH]3)CC2)s1,570 s
6,CCn1c(CCNC(=O)c2ccc(OC)cc2)nc2cccnc21,607 s
7,COc1cccc(N2CCN(C(=O)c3ccc4c(c3)NC(=O)C3CCCCN43)CC2)c1 (stereo unspecified),592 s
8,Brc1cccc(-c2nc3ncccn3c2NCc2ccccc2)c1,860 s
9,Cc1ccc(S(=O)(=O)N2C[C@@H](F)C[C@H]2C(=O)N2CCCCC2)c(C)c1,874 s
10,CCOC(=O)CCNC(=O)N1c2ccccc2CC1c1nc(C2CC2)no1 (stereo unspecified),853 s
11,CC1(c2ccc3ccccc3c2)CCC(=O)O1 (stereo unspecified),970 s
12,O=C(NC1CC1)c1ccnc(N2CCNC(c3ccccc3)C2)c1 (stereo unspecified),583 s
13,O=C1CN(C(=O)c2cnccn2)c2ccccc2N1,569 s
14,COc1ccccc1NC(=O)CN1CCC(c2nc(-c3cccs3)no2)CC1,682 s
15,Cc1ccc(NC(=O)Cn2nc(C(=O)N3CCCC3)c3ccccc32)cc1C,828 s
16,CC1=C(c2ccc(C)cc2)S(=O)(=O)N=C1N1CCCN(C(=O)NCCC(C)C)CC1,895 s
17,O=C(Nc1ccc(S(=O)(=O)Nc2nccs2)cc1)c1sc2ccccc2c1Cl,799 s
18,Cc1cc2c(=O)n(CC(=O)NCc3ccc(F)cc3)c3cccnc3n2n1,693 s
19,CC(C)OCCCNC(=O)CCc1nnc2c3cc(-c4ccc(F)cc4)nn3ccn12,710 s
20,CCn1c(=O)c(N2CCCC(C(=O)NCCc3ccco3)C2)nc2cccnc21 (stereo unspecified),828 s
21,CC(C)CCNC(=O)C1CCN(c2nccn3nc(-c4cccs4)cc23)CC1,1090 s
22,CC1CCCC(NC(=O)c2cc3sc(Cl)cc3n2C)C1C (stereo unspecified),1230 s

# From the METLIN SMRT retention time set (Domingo-Almenara et al. 2019)
